The record followed here is patent US20170152258A9, “Substituted Pyridopyrazines as Syk Inhibitors” (HUTCHISON MEDIPHARMA LIMITED, priority 2012, published 2017).

Several values for one entry are separate records, joined by “and”; a condition that tells them apart may be missing. Identical values can stand only once.

Experiment [1] deals with RBL-2H3 cells. The experiment can be described thus: IgE-induced Beta-hexosaminidase secretion in RBL-2H3 cells. Type of experiment: cell-based. The following applies: DNP-BSA stimulation. The method, boiled down:
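RBL-2H3 cells sensitized overnight with 0.5 ug/ml SPE-7 IgE, washed, preincubated with compound 20 min at 37° C, then stimulated with DNP-BSA (150 ng/mL stock) for 45 min. Released β-hexosaminidase measured on supernatant with 1 mM 4-nitrophenyl N-acetyl-β-D-glucosaminide, pH 4.5, 1.5 hr at 37° C; absorbance 405 nm after carbonate quench.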

The target of experiment [2] is Syk kinase (Homo sapiens, UniProt P43405). Nature of the experiment: SYK Enzymatic Assay (Z-LYTE Tyr 2 peptide). As to conditions: 8 concentrations 1 μM down to 0.0003 μM. Type of experiment: biochemical. The method, boiled down: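 Z-LYTE format using Tyr 2 peptide. After the 1 h room-temperature kinase reaction, development reagent was added for 1 h, then stop reagent. Fluorescence was read at 445 and 520 nm. Compounds were tested at 8 concentrations, 1 μM down to 0.0003 μM (1:3 dilutions).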

The mark [3] stands for this setting: Rattus norvegicus, RBL-2H3, IgE-induced Beta-hexosaminidase secretion.
Where [4] appears, read: IgE-induced Beta-hexosaminidase secretion.

As a reminder, the IC50 is the concentration that gives 50% inhibition. A lower IC50 goes with higher potency. As to `c1cnc2c(O[C@@H]3CCOC3)nc(-c3ccc(N4CCOCC4)cc3)cc2n1` [Compound 149], the IC50 in experiment [1] (setting [3]) came to 0.06 µM; in experiment [2] it was 0.03 µM.
On the same counts, the results for `COc1ccc(-c2cc3nccnc3c(O[C@@H]3CCOC3)n2)cc1OC` [Compound 150] are 0.097 µM and 0.092 µM.
Regarding `CCN(CC)c1ccc(-c2cc3nccnc3c(O[C@@H]3CCOC3)n2)cc1` [Compound 151], the results for the IC50 in experiment [1] (setting [3]) and in experiment [2] were 0.043 µM and 0.044 µM, respectively.
On the same counts, the results for `CC(=O)N1CCN(c2ccc(-c3cc4nccnc4c(O[C@@H]4CCOC4)n3)cc2)CC1` [Compound 152] are 0.048 µM and 0.033 µM.
On the same counts, the results for `CS(=O)(=O)N1CCN(c2ccc(-c3cc4nccnc4c(O[C@@H]4CCOC4)n3)cc2)CC1` [Compound 153] are 0.026 µM and 0.033 µM.
The matching figures for `CN(C)c1ccc(-c2cc3nccnc3c(O[C@@H]3CCOC3)n2)cc1Cl` [Compound 154]: 0.078 µM and 0.043 µM.
In the case of `Cc1cc(-c2cc3nccnc3c(O[C@@H]3CCOC3)n2)ccc1N(C)C` [Compound 155], the IC50 in experiment [1] (setting [3]) was found to be 0.029 µM; in experiment [2] it was 0.032 µM.
The matching figures for `CC(=O)N1CCC(c2ccc(-c3cc4nccnc4c(O[C@@H]4CCOC4)n3)cc2)CC1` [Compound 156]: 0.032 µM and 0.038 µM.
Take `CC(=O)N1CCO[C@H](COc2nc(-c3ccc(N(C)C)c(C)c3)cc3nccnc23)C1` [Compound 158]: the IC50 was determined as 0.032 µM in experiment [1] (setting [3]) and 0.03 µM in experiment [2].
For the compound `CC(=O)N1CCO[C@H](COc2nc(-c3cc(C)c(N(C)C)c(C)c3)cc3nccnc23)C1` [Compound 161], the figures for the half-inhibitory concentration (IC50) in experiment [1] (setting [3]) and in experiment [2] were 0.108 µM and 0.151 µM, respectively.
In the case of `Cc1cc(-c2cc3nccnc3c(OC[C@@H]3CN(C(N)=O)CCO3)n2)ccc1N(C)C` [Compound 163], the IC50 in experiment [1] (setting [3]) was 0.053 µM; in experiment [2] it was 0.036 µM.
For `CNC(=O)N1CCO[C@H](COc2nc(-c3ccc(N(C)C)c(C)c3)cc3nccnc23)C1` [Compound 164], the concentration for half-maximal inhibition (IC50) in experiment [1] (setting [3]) was found to be 0.082 µM; in experiment [2], 0.066 µM.
The matching figures for `CN(C)c1ccc(-c2cc3nccnc3c(OC[C@@H]3CN(C(N)=O)CCO3)n2)cc1Cl` [Compound 165]: 0.095 µM and 0.048 µM.
On to `CNC(=O)N1CCO[C@H](COc2nc(-c3ccc(N(C)C)c(Cl)c3)cc3nccnc23)C1` [Compound 166], for which the IC50 in experiment [1] (setting [3]) came to 0.071 µM; in experiment [2], 0.052 µM.
The matching figures for `CN(C)c1ccc(-c2cc3nccnc3c(OC[C@@H]3CN(C(=O)C(C)(F)F)CCO3)n2)cc1` [Compound 172]: 0.055 µM and 0.05 µM.
`CN(C)c1ccc(-c2cc3nccnc3c(OC[C@@H]3CN(C(=O)CO)CCO3)n2)cc1` [Compound 173]: the IC50 in experiment [1] (setting [3]) was 0.054 µM; in experiment [2], 0.032 µM.
The matching figures for `CC(C)c1ccc(-c2cc3nccnc3c(OC[C@@H]3CN(C(N)=O)CCO3)n2)cc1` [Compound 175]: 0.069 µM and 0.055 µM.
The matching figures for `CNC(=O)N1CCO[C@H](COc2nc(-c3ccc(C(C)C)cc3)cc3nccnc23)C1` [Compound 176]: 0.067 µM and 0.059 µM.
For the compound `CC(=O)N1CCN(c2ccc(-c3cc4nccnc4c(O[C@@H]4CCCOC4)n3)cc2)CC1` [Compound 177], the figures for the IC50 in experiment [1] (setting [3]) and in experiment [2] were 0.079 µM and 0.091 µM, respectively.
As to `CN(C)c1ccc(-c2cc3nccnc3c(OC[C@@H]3CN(S(N)(=O)=O)CCO3)n2)cc1` [Compound 178], the figures for the IC50 in experiment [1] (setting [3]) and in experiment [2] were 0.063 µM and 0.019 µM, respectively.
`CC(C)c1ccc(-c2cc3nccnc3c(OC[C@@H]3CN(S(C)(=O)=O)CCO3)n2)cc1` [Compound 181]: the half-maximal inhibitory concentration (IC50) was 0.069 µM in experiment [1] (setting [4]); 0.057 µM in experiment [1] (setting [3]); 0.091 µM and 0.068 µM in experiment [2].
As for `CN(C)c1ccc(-c2cc3nccnc3c(OC[C@@H]3CN(C(N)=O)CCO3)n2)cc1F` [Compound 183], the IC50 in experiment [1] (setting [3]) came to 0.095 µM; in experiment [2], 0.076 µM.
The matching figures for `CNC(=O)N1CCO[C@H](COc2nc(-c3ccc(N(C)C)c(F)c3)cc3nccnc23)C1` [Compound 184]: 0.062 µM and 0.084 µM.
For the compound `CC(=O)N1CCO[C@H](COc2nc(-c3ccc4c(c3)CCCN4C)cc3nccnc23)C1` [Compound 185], the results for the IC50 in experiment [1] (setting [3]) and in experiment [2] were 0.064 µM and 0.04 µM, respectively.
On the same counts, the results for `CC(=O)N1CCO[C@H](COc2nc(-c3ccc(N4CCN(C)CC4)c(C)c3)cc3nccnc23)C1` [Compound 186] are 0.114 µM and 0.081 µM.
On the same counts, the results for `Cc1cc(-c2cc3nccnc3c(OC[C@@H]3CN(S(N)(=O)=O)CCO3)n2)ccc1N(C)C` [Compound 188] are 0.039 µM and 0.011 µM.
As for `CC(=O)N1CCO[C@H](COc2nc(-c3ccc4c(c3)CCN4C)cc3nccnc23)C1` [Compound 189], the IC50 in experiment [1] (setting [3]) is 0.078 µM; in experiment [2], 0.061 µM.
On the same counts, the results for `c1cnc2c(O[C@@H]3CCOC3)nc(-c3ccc(C4CCNCC4)cc3)cc2n1` [Compound 190] are 0.645 µM and 0.05 µM.
On the same counts, the results for `Cc1cc(-c2cc3nccnc3c(O[C@@H]3CCOC3)n2)ccc1N1CCOCC1` [Compound 192] are 0.049 µM and 0.03 µM.
In the case of `Fc1cc(-c2cc3nccnc3c(O[C@@H]3CCOC3)n2)ccc1N1CCOCC1` [Compound 193], the IC50 amounted to 0.143 µM in experiment [1] (setting [3]) and 0.066 µM in experiment [2].
With `CC(C)c1ccc(-c2cc3nccnc3c(OC[C@@H]3CN(C(=O)CO)CCO3)n2)cc1` [Compound 195], the concentration for half-maximal inhibition (IC50) in experiment [1] (setting [3]) came out at 0.129 µM; in experiment [2] it was 0.063 µM.
`C[C@@H](O)C(=O)N1CCO[C@H](COc2nc(-c3ccc(N(C)C)cc3)cc3nccnc23)C1` [Compound 196]: the IC50 in experiment [1] (setting [3]) amounted to 0.128 µM; in experiment [2], 0.067 µM.
The matching figures for `C[C@H](O)C(=O)N1CCO[C@H](COc2nc(-c3ccc(N(C)C)cc3)cc3nccnc23)C1` [Compound 197]: 0.081 µM and 0.085 µM.
On the same counts, the results for `CCC(=O)N1CCO[C@H](COc2nc(-c3ccc(N(C)C)cc3)cc3nccnc23)C1` [Compound 198] are 0.086 µM and 0.04 µM.
On the same counts, the results for `CN(C)c1ccc(-c2cc3nccnc3c(OC[C@@H]3CN(C(=O)N4CCC4)CCO3)n2)cc1` [Compound 199, (S)-azetidin-1-yl(2-(((7-(4-(dimethylamino)phenyl)pyrido[3,4-b]pyrazin-5-yl)oxy)methyl)morpholino)methanone] are 0.211 µM and 0.088 µM.
Consider `Cc1cc(-c2cc3nccnc3c(OC[C@@H]3CN(C(=O)[C@@H](C)O)CCO3)n2)ccc1N(C)C` [Compound 200], for which the IC50 in experiment [1] (setting [3]) was 0.133 µM; in experiment [2] it was 0.051 µM.
On the same counts, the results for `Cc1cc(-c2cc3nccnc3c(OC[C@@H]3CN(C(=O)[C@H](C)O)CCO3)n2)ccc1N(C)C` [Compound 201] are 0.1 µM and 0.049 µM.
On the same counts, the results for `CCC(=O)N1CCO[C@H](COc2nc(-c3ccc(N(C)C)c(C)c3)cc3nccnc23)C1` [Compound 202] are 0.09 µM and 0.026 µM.
As to `CS(=O)(=O)N1CCO[C@H](COc2nc(-c3ccc4[nH]ncc4c3)cc3nccnc23)C1` [Compound 203], the IC50 was found to be 0.107 µM in experiment [1] (setting [3]) and 0.06 µM in experiment [2].
For the compound `CC(=O)N1CCN(c2ccc(-c3cc4nccnc4c(O[C@@H]4CCOC4)n3)cc2C)CC1` [Compound 205], the IC50 in experiment [1] (setting [3]) turned out to be 0.019 µM; in experiment [2], 0.027 µM.
The matching figures for `CN(C)c1ccc(-c2cc3nccnc3c(OC[C@@H]3CNC(=O)C3)n2)cc1` [Compound 206, (S)-4-(((7-(4-(dimethylamino)phenyl)pyrido[3,4-b]pyrazin-5-yl)oxy)methyl)pyrrolidin-2-one]: 0.052 µM and 0.072 µM.
As for `CN1CCCc2cc(-c3cc4nccnc4c(OC[C@@H]4CN(S(C)(=O)=O)CCO4)n3)ccc21` [Compound 207], the IC50 in experiment [1] (setting [4]) is 0.014 µM; in experiment [1] (setting [3]) it was 0.008 µM; in experiment [2], 0.011 µM.
`CN1CCCc2cc(-c3cc4nccnc4c(OC[C@@H]4CN(S(N)(=O)=O)CCO4)n3)ccc21` [Compound 208]: the values for the IC50 in experiment [1] (setting [3]) and in experiment [2] were 0.02 µM and 0.013 µM, respectively.
For the compound `CN1CCCc2cc(-c3cc4nccnc4c(OC[C@@H]4CN(C(N)=O)CCO4)n3)ccc21` [Compound 209], the IC50 turned out to be 0.057 µM in experiment [1] (setting [3]) and 0.017 µM in experiment [2].
Take `Cc1cc(-c2cc3nccnc3c(O[C@@H]3CCOC3)n2)ccc1N1CCN(S(C)(=O)=O)CC1` [Compound 210]: the IC50 in experiment [1] (setting [3]) amounted to 0.032 µM; in experiment [2] it was 0.03 µM.
The matching figures for `CNS(=O)(=O)N1CCO[C@H](COc2nc(-c3ccc(N(C)C)cc3)cc3nccnc23)C1` [Compound 211]: 0.078 µM and 0.058 µM.
On the same counts, the results for `CC(C)(C#N)c1ccc(-c2cc3nccnc3c(OC[C@@H]3CN(S(C)(=O)=O)CCO3)n2)cc1` [Compound 212] are 0.03 µM and 0.017 µM.
The matching figures for `CC(O)c1ccc(-c2cc3nccnc3c(OC[C@@H]3CN(S(C)(=O)=O)CCO3)n2)cc1` (stereo partly drawn) [Compound 213, 1-(4-(5-(((S)-4-(methylsulfonyl)morpholin-2-yl)methoxy)pyrido[3,4-b]pyrazin-7-yl)phenyl)ethanol]: 0.071 µM and 0.057 µM.
Consider `CN1CCc2cc(-c3cc4nccnc4c(OC[C@@H]4CN(S(C)(=O)=O)CCO4)n3)ccc21` [Compound 214], for which the figures for the IC50 in experiment [1] (setting [3]) and in experiment [2] were 0.02 µM and 0.016 µM, respectively.
